ChEMBL document CHEMBL5046319, “Development of Low-Molecular-Weight Compounds Targeting the Cancer-Associated KLF5 Transcription Factor” (ACS Med Chem Lett, 2022)
The source made the active and inactive calls. No cut-off for these calls is given here.

Columns and labels:
SW480 [1] = experiment: Inhibition of Wnt signalling in human SW480 cells assessed as reduction in TCF4 expression at 10 uM measured after 24 hrs by western blot analysis; type: cell-based
SW480 [2] = experiment: Inhibition of Wnt signalling in human SW480 cells assessed as reduction in phosphorylation of beta-catenin at ser552 residues at 10 uM measured after 24 hrs by western blot analysis; type: cell-based
CCD-841CoN [3] = experiment: Inhibition of Wnt signalling in human CCD841 cells assessed as reduction in phosphorylation of beta-catenin at ser675 residue at 10 uM measured after 24 hrs by western blot analysis; type: cell-based
[4] = Toxicity in nude mouse transplanted subcutaneously with human HT-29 cells assessed as abnormality in villi formation at 2 mg, ip administered twice daily for 8 days by H and E staining based assay; type: organism-based; settings: in vivo, 192 h, time 8 day
SW480 [5] = experiment: Inhibition of Wnt signalling in human SW480 cells assessed as reduction in KLF5 expression at 10 uM measured after 24 hrs by western blot analysis; type: cell-based
SW480 [6] = experiment: Inhibition of Wnt signalling in human SW480 cells assessed as reduction in survivin expression at 10 uM measured after 24 hrs by western blot analysis; type: cell-based
HCT-116 [7] = experiment: Antiproliferative activity against human HCT-116 cells assessed as cell growth inhibition measured after 72 hrs by Cell Counting Kit-8 assay; type: functional, cell-based; settings: HCT-116, 72 h
SW480 [8] = experiment: Inhibition of Wnt signalling in human SW480 cells assessed as reduction in phosphorylation of beta-catenin at ser675 residue at 10 uM measured after 24 hrs by western blot analysis; type: cell-based
CCD-841CoN [9] = experiment: Cytotoxicity against human CCD-841 cells assessed as cell growth inhibition measured after 72 hrs by Cell Counting Kit-8 assay; type: toxicity, cell-based
HEK293T = experiment: Inhibition of USP3-KLF5 protein complex formation in HEK293T cells overexpressing Myc tag-USP3 and FLAG/HA-KLF5 proteins assessed as reduction in KLF5 expression at 20 uM measured after 4 hrs by western blot analysis; type: cell-based; settings: Homo sapiens
HT-29 = experiment: Antitumour activity against human HT-29 cells subcutaneously transplanted in nude mouse assessed as reduction in tumor volume at 2 mg, ip administered twice per day for 8 days; type: functional, organism-based; settings: time 8.0 day
SW480 [10] = experiment: Inhibition of USP3-KLF5 protein complex formation in human SW480 cells assessed as reduction in beta-catenin expression at 10 uM measured after 24 hrs by western blot analysis; type: cell-based
[11] = Toxicity in nude mouse transplanted subcutaneously with human HT-29 cells assessed as abnormality in epithelial cell integrity at 2 mg, ip administered twice daily for 8 days by H and E staining based assay; type: organism-based; settings: in vivo, 192 h, time 8 day
CCD-841CoN [12] = experiment: Inhibition of Wnt signalling in human CCD841 cells assessed as reduction in cyclin D1 expression at 10 uM measured after 24 hrs by western blot analysis; type: cell-based
SW480 [13] = experiment: Antiproliferative activity against human SW480 cells assessed as cell growth inhibition measured after 72 hrs by Cell Counting Kit-8 assay; type: functional, cell-based; settings: SW480, 72 h
SW480 [14] = experiment: Inhibition of Wnt2 signalling in human SW480 cells assessed as reduction in cyclin D1 expression at 10 uM measured after 24 hrs by western blot analysis; type: cell-based
HCT-116 [15] = experiment: Antiproliferative activity against human HCT-116 cells assessed as inhibition of cell proliferation at 100 uM incubated for 72 hrs by CCK-8 assay; type: functional, cell-based
CCD-841CoN [16] = experiment: Cytotoxicity against human CCD841 cells assessed as inhibition of cell proliferation at 100 uM incubated for 72 hrs by CCK-8 assay; type: toxicity, cell-based
SW480 [17] = experiment: Antiproliferative activity against human SW480 cells assessed as inhibition of cell proliferation at 100 uM incubated for 72 hrs by CCK-8 assay; type: functional, cell-based
SW480 [18] = experiment: Inhibition of Wnt signalling in human SW480 cells assessed as reduction in KLF5 mRNA expression at 10 uM measured after 24 hrs by RT-PCR analysis; type: cell-based
CCD-841CoN [19] = experiment: Inhibition of Wnt signalling in human CCD841 cells assessed as reduction in survivin expression at 10 uM measured after 24 hrs by western blot analysis; type: cell-based
CCD-841CoN [20] = experiment: Inhibition of Wnt signalling in human CCD841 cells assessed as reduction in TCF4 expression at 10 uM measured after 24 hrs by western blot analysis; type: cell-based
CCD-841CoN [21] = experiment: Inhibition of Wnt signalling in human CCD841 cells assessed as reduction in KLF5 expression at 10 uM measured after 24 hrs by western blot analysis; type: cell-based

With `CC[C@H](C)[C@H]1CN(Cc2ccccc2)C[C@@H]2N(C(=O)OCC(C)C)O[C@H](C(C)C)C(=O)N12` the Activity (SW480 [1]) was “Active”, the Activity (SW480 [2]) was “Active” and the Activity (CCD-841CoN [3]) was “inactive”. For the same compound, the Activity [4] was “Non-Toxic”, the Activity (SW480 [5]) was “Active” and the Activity (SW480 [6]) was “Active”. The IC50 (HCT-116 [7]) was 2.5 µM, the Activity (SW480 [8]) was “Active” and the Activity (CCD-841CoN [9]) was “Non-Toxic”. The Activity (HEK293T) was “Active”, the Activity (HT-29) was “Active” and the Activity (SW480 [10]) was “Active”. For the same compound, the Activity [11] was “Non-Toxic”, the Activity (CCD-841CoN [12]) was “inactive” and the IC50 (SW480 [13]) was 2.5 µM. For the same compound, the Activity (SW480 [14]) was “Active”.
For `CC(C)[C@H](O)C(=O)OCc1ccccc1`, the Activity (HCT-116 [15]) was “Active”, the Activity (CCD-841CoN [16]) was “Toxic” and the Activity (SW480 [17]) was “Active”.
In the case of `CCOC(CNCc1ccccc1)OCC`, the Activity (HCT-116 [15]) is reported as “Active”, the Activity (CCD-841CoN [16]) is reported as “Toxic” and the Activity (SW480 [17]) is reported as “Active”.
With `CCOC(CN)OCC` the Activity (HCT-116 [15]) was “Active”, the Activity (CCD-841CoN [16]) was “Toxic” and the Activity (SW480 [17]) was “Active”.
With `CC(C)COC(=O)N1O[C@H](C(C)C)C(=O)N2[C@@H](CC(C)C)CN(Cc3ccccc3)C[C@H]12` the Activity (SW480 [1]) was “Active”, the Activity (SW480 [2]) was “Active” and the Activity (SW480 [5]) was “Active”. For the same compound, the Activity (SW480 [18]) was “inactive”, the Activity (SW480 [6]) was “Active” and the IC50 (HCT-116 [7]) was 5.1 µM. The Activity (CCD-841CoN [19]) was “inactive”, the Activity (CCD-841CoN [9]) was “Non-Toxic” and the Activity (CCD-841CoN [20]) was “inactive”. The IC50 (SW480 [13]) was 5.1 µM and the Activity (CCD-841CoN [21]) was “inactive”.
For `CCOC(CN(Cc1ccccc1)C(=O)[C@@H](NC(=O)OCC1c2ccccc2-c2ccccc21)[C@@H](C)CC)OCC`, the Activity (HCT-116 [15]) was “Active”, the Activity (CCD-841CoN [16]) was “Toxic” and the Activity (SW480 [17]) was “Active”.
For `CC[C@H](C)[C@H](NC(=O)OCC1c2ccccc2-c2ccccc21)C(=O)O`, the Activity (HCT-116 [15]) was “Active”, the Activity (CCD-841CoN [16]) was “Toxic” and the Activity (SW480 [17]) was “Active”.
For `CC(C)[C@@H](ON1C(=O)c2ccccc2C1=O)C(=O)OCc1ccccc1`, the Activity (HCT-116 [15]) was “Active”, the Activity (CCD-841CoN [16]) was “Toxic” and the Activity (SW480 [17]) was “Active”.
In the case of `O=Cc1ccccc1` [BENZALDEHYDE], the Activity (HCT-116 [15]) is reported as “Active”, the Activity (CCD-841CoN [16]) is reported as “Toxic” and the Activity (SW480 [17]) is reported as “Active”.
With `O=C1c2ccccc2C(=O)N1O` the Activity (HCT-116 [15]) was “Active”, the Activity (CCD-841CoN [16]) was “Toxic” and the Activity (SW480 [17]) was “Active”.
With `O=C1[C@H](Cc2ccc(O)cc2)N2C(=O)CCN(C(=O)NCc3ccccc3)[C@H]2CN1Cc1cccc2ccccc12` the Activity (HCT-116 [15]) was “Active”, the Activity (CCD-841CoN [16]) was “Toxic” and the Activity (SW480 [17]) was “Active”.
With `CCCC[C@H]1CN(Cc2ccccc2)C[C@@H]2N(C(=O)OCC(C)C)O[C@H](C(C)C)C(=O)N12` the Activity (SW480 [1]) was “Active”, the Activity (SW480 [2]) was “Active” and the Activity (SW480 [5]) was “Active”. For the same compound, the Activity (SW480 [18]) was “inactive”, the Activity (SW480 [6]) was “Active” and the IC50 (HCT-116 [7]) was 5.1 µM. For the same compound, the Activity (CCD-841CoN [19]) was “inactive”, the Activity (CCD-841CoN [9]) was “Non-Toxic” and the Activity (CCD-841CoN [20]) was “inactive”. The IC50 (SW480 [13]) was 5.1 µM and the Activity (CCD-841CoN [21]) was “inactive”.
With `CC(C)[C@H](O)C(=O)O` the Activity (HCT-116 [15]) was “Active”, the Activity (CCD-841CoN [16]) was “Toxic” and the Activity (SW480 [17]) was “Active”.
With `CC(C)[C@@H](ON)C(=O)OCc1ccccc1` the Activity (HCT-116 [15]) was “Active”, the Activity (CCD-841CoN [16]) was “Toxic” and the Activity (SW480 [17]) was “Active”.
With `CCOC(CN(Cc1ccccc1)C(=O)[C@@H](N)[C@@H](C)CC)OCC` the Activity (HCT-116 [15]) was “Active”, the Activity (CCD-841CoN [16]) was “Toxic” and the Activity (SW480 [17]) was “Active”.
